# Reference: US20180237713A1, “Ionic Liquid, Lubricant, and Magnetic Recording Medium” (priority 2015, published 2018)
# Key:
# [1] = Solubility test of ionic liquid in fluorine-based solvent VERTREL XF; conditions: for Solubility to fluorine-based solvent: VERTREL XF [CF3(CHF)2CF2CF3], 25° C., ultrasonic 5 minutes, left 1 day, visual
# Method: A solubility test was performed on the ionic liquid synthesized each of Examples and each of Comparative Examples using VERTREL XF [CF3(CHF)2CF2CF3] available from Du Pont-Mitsui Fluorochemicals Company, Ltd. as a fluorine-based solvent.
# The ionic liquid was added to the predetermined mass of VERTREL XF.
# Specifically, 0.5 parts by mass or 0.1 parts by mass of each ionic liquid was added to 100 parts by mass of VERTREL XF (25° C.).
# Note that, a case where the mixture was visually observed to be transparent, the ionic liquid was judged as being dissolved. A case where the mixture was not transparent or insoluble matter was observed, the ionic liquid was judged as not being dissolved (insoluble).
# The ionic liquid was dissolved when 0.5 parts by mass of the ionic liquid was added.
# The ionic liquid was not dissolved when 0.5 parts by mass of the ionic liquid was added, but the ionic liquid was dissolved when 0.1 parts by mass of the ionic liquid was added.
# The ionic liquid was not dissolved both when 0.5 parts by mass of the ionic liquid was added and when 0.1 parts by mass of the ionic liquid was added.
# [2] = Thermal stability measurement (TG/DTA weight reduction temperature); conditions: for Weight reduction temperature 5% / Weight reduction temperature 10% / Weight reduction temperature 20%: TG/DTA, air 200 mL/min, 10° C./min, 30° C. to 600° C.
Compound,Solubility to fluorine-based solvent [1],Weight reduction temperature 5% [2],Weight reduction temperature 10% [2],Weight reduction temperature 20% [2],Solubility to fluorine-based solvent ([1]; listed as Example 2A),Thermal stability improved compared with perfluoropolyether Z-DOL or Z-TETRAOL by ([2]; difference to Z-DOL or Z-TETRAOL),Dissolved or not in fluorine-based solvent ([1]; VERTREL XF),Solubility to fluorine-based solvent ([1]; listed as Example 4A)
"CCCCCCCCCCCCCCCCCCC1CCCCN2CCCN=C12.O=S1(=O)NS(=O)(=O)C(F)(F)C(F)(F)C1(F)F (stereo not drawn) [Comp. Ex. 1A, hexafluorocyclopropane-1,3-bis(sulfonyl)imide-6-octadecyl-1,8-diazabicyclo[5.4.0]-7-undecenium, reference compound]",less than 0.1% by mass,346.3 °C,384.1 °C,414.0 °C,,,,
"CCCCCCCCCCCCCCCCCC[N+]1=C2CCCCCN2CCC1.O=S(=O)([N-]S(=O)(=O)C(F)(F)C(F)(F)C(F)(F)C(F)(F)F)C(F)(F)C(F)(F)C(F)(F)C(F)(F)F [Ex. 2A, bis(nonafluorobutanesulfonyl)imide-8-octadecyl-1,8-diazabicyclo[5.4.0]-7-undecenium]",0.5% by mass or greater,341.1 °C,372.9 °C,396.3 °C,≥ 0.5 % by mass,≥ 100 °C,,
"CCCCCCCCCCCCCCCCCCn1cc[n+](CCCCCCCCC[n+]2ccn(CCCCCCCCCCCCCCCCCC)c2)c1.O=S(=O)([N-]S(=O)(=O)C(F)(F)C(F)(F)C(F)(F)C(F)(F)F)C(F)(F)C(F)(F)C(F)(F)C(F)(F)F.O=S(=O)([N-]S(=O)(=O)C(F)(F)C(F)(F)C(F)(F)C(F)(F)F)C(F)(F)C(F)(F)C(F)(F)C(F)(F)F [Comp. Ex. 10A, 1,9-bis[bis(nonafluorobutanesulfonyl)imide-1-octadecylimidazolium]nonane, reference compound]",less than 0.1% by mass,355.1 °C,381.0 °C,400.9 °C,,,,
"CCCCCCCCCCCCCCCCCC[N+]1(CCCC)CCCC1.O=S(=O)([N-]S(=O)(=O)C(F)(F)C(F)(F)C(F)(F)C(F)(F)F)C(F)(F)C(F)(F)C(F)(F)C(F)(F)F [Ex. 4A, bis(nonafluorobutanesulfonyl)imide-N-butyl-N-octadecylpyrrolidinium]",0.5% by mass or greater,331.4 °C,360.2 °C,382.5 °C,,,could be dissolved,≥ 0.5 % by mass
"CCCCCCCCCCCCCCCCCCN1CCCC1.O=S1(=O)NS(=O)(=O)C(F)(F)C(F)(F)C1(F)F [Comp. Ex. 6A, hexafluorocyclopropane-1,3-bis(sulfonyl)imide-N-octadecylpyrrolidinium, reference compound]",less than 0.1% by mass,336.4 °C,358.4 °C,379.4 °C,,,,
"CCCCCCCCCCCCCCCCCCn1cc[n+](CCCCC[n+]2ccn(CCCCCCCCCCCCCCCCCC)c2)c1.O=S(=O)([N-]S(=O)(=O)C(F)(F)C(F)(F)C(F)(F)C(F)(F)F)C(F)(F)C(F)(F)C(F)(F)C(F)(F)F.O=S(=O)([N-]S(=O)(=O)C(F)(F)C(F)(F)C(F)(F)C(F)(F)F)C(F)(F)C(F)(F)C(F)(F)C(F)(F)F [Comp. Ex. 9A, 1,5-bis[bis(nonafluorobutanesulfonyl)imide-1-octadecylimidazolium]pentane, reference compound]",less than 0.1% by mass,,,,,,,
CCCCCCCCCCCCCCCCCCn1cc[n+](CCC[n+]2ccn(CCCCCCCCCCCCCCCCCC)c2)c1.O=S(=O)([N-]S(=O)(=O)C(F)(F)C(F)(F)C(F)(F)C(F)(F)F)C(F)(F)C(F)(F)C(F)(F)C(F)(F)F.O=S(=O)([N-]S(=O)(=O)C(F)(F)C(F)(F)C(F)(F)C(F)(F)F)C(F)(F)C(F)(F)C(F)(F)C(F)(F)F [Ex. 11A],0.5% by mass or greater,,,,,,,
"heptadecafluorooctanesulfonic acid-6-octadecyl-1,8-diazabicyclo[5.4.0]-7-undecenium [Comp. Ex. 2A, reference compound]",less than 0.1% by mass,,,,,,,
